Measured values published in US10980781B2, “6-amino-2,4-dihydropyrano [2,3-c] pyrazoles and methods of use” (Purdue Research Foundation, priority 2017, dated 2021).

Target: USP7 (Homo sapiens (Human), UniProt Q93009)
Assay: USP7 inhibition assay with Ub-Rho 110 substrate (fluorescence progress curves)
Assay type: biochemical
Conditions: 100 μM compound; 1 nM USP7, 200 nM Ub-Rho 110, 3% DMSO, triplicate
Protocol: Each assay was measured in triplicate. […] All reactions contained a final concentration of 3% DMSO. […] The percent inhibition was calculated using Equation (1).
The assay design was identical to as described above. The percent inhibition was calculated using Equation 1 and fit to Equation 2 by use of the Enzyme Kinetics Module of Sigma Plot (v13:Systat Software Inc.), to determine the IC50 value.

USP7, sequence (Q93009 whole entry): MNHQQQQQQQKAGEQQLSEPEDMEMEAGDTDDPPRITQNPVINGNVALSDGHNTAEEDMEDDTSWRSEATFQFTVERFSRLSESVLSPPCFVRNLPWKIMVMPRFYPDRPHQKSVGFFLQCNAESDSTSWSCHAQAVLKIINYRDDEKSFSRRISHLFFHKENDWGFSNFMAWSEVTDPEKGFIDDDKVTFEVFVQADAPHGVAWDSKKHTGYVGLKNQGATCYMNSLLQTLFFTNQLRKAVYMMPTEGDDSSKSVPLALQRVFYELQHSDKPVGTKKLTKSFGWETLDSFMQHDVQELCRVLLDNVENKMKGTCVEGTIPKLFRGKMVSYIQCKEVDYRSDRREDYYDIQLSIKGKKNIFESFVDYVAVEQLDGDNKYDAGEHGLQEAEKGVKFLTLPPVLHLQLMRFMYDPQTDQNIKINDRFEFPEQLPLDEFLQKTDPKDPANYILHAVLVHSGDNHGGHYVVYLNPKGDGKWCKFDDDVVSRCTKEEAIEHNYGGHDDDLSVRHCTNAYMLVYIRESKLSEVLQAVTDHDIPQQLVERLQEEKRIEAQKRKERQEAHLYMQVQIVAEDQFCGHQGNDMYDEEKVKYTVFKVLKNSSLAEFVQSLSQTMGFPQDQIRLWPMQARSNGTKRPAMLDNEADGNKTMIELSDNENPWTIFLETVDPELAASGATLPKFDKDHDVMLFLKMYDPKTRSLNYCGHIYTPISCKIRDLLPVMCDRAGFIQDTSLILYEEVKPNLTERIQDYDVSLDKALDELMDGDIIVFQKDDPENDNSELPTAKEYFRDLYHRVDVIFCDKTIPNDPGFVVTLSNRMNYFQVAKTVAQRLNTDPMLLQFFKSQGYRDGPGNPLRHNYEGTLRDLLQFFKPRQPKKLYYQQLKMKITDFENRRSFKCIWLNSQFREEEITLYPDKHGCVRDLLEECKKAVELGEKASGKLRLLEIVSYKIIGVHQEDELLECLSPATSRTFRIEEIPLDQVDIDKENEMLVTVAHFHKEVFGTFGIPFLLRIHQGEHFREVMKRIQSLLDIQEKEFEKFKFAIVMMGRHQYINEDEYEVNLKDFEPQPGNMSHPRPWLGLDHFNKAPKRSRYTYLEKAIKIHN

Structure (SMILES)	inhibition at 100 µM [%]
CCOCNC1=C(C#N)C(c2ccc(OC)c(Br)c2)c2c(-c3cccs3)nn(C)c2O1 (stereo not drawn) [Compound 11, 4-(3-Bromo-4-methoxyphenyl)-6-((ethoxymethyl)amino)-1-methyl-3-(thiophen-2-yl)-1,4-dihydropyrano [2,3-c]pyrazole-5-carbonitrile]	0
CNC1=C(C#N)C(c2ccc(OC)c(Br)c2)c2c(n[nH]c2-c2cccs2)O1 (stereo not drawn) [Compound 13, 4-(3-Bromo-4-methoxyphenyl)-6-(methylamino)-3-(thiophen-2-yl)-2,4-dihydropyrano[2,3-c]pyrazole-5-carbonitrile]	47 ± 1
COc1ccc(C2C(C#N)=C(N)Oc3nn(C(C)=O)c(-c4cccs4)c32)cc1Br (stereo not drawn) [Compound 14, 2-Acetyl-6-amino-4-(3-bromo-4-methoxyphenyl)-3-(thiophen-2-yl)-2,4-dihydropyrano[2,3-c]pyrazole-5-carbonitrile]	85 ± 2
COc1ccc(C2C(C#N)=COc3n[nH]c(-c4cccs4)c32)cc1Br (stereo not drawn) [Compound 15, 4-(3-Bromo-4-methoxyphenyl)-3-(thiophen-2-yl)-2,4-dihydropyrano [2,3-c]pyrazole-5-carbonitrile]	0

Further lines, results first:

inhibition at 100 µM [%]	Structure (SMILES)
32 ± 3	COc1ccc(C2C(C#N)=C(N)Oc3n[nH]c(-c4cc(C)sc4C)c32)cc1Br (stereo not drawn) [Compound 7n, 6-Amino-4-(3-bromo-4-methoxyphenyl)-3-(2,5-dimethylthiophen-3-yl)-2,4-dihydropyrano[2,3-c]pyrazole-5-carbonitrile]
29 ± 6	COc1ccc(C2C(C#N)=C(N)Oc3n[nH]c(-c4cc(C)sc4C)c32)cc1I (stereo not drawn) [Compound 7o, 6-Amino-3-(2,5-dimethylthiophen-3-yl)-4-(3-iodo-4-methoxyphenyl)-2,4-dihydropyrano[2,3-c]pyrazole-5-carbonitrile]
0	COc1ccc(C2C(C#N)=C(N)Oc3c2c(-c2cccs2)nn3C)cc1Br (stereo not drawn) [Compound 9a, 6-Amino-4-(3-bromo-4-methoxyphenyl)-1-methyl-3-(thiophen-2-yl)-1,4-dihydropyrano[2,3-c]pyrazole-5-carbonitrile]
0	COc1ccc(C2C(C#N)=C(N)Oc3c2c(-c2cccs2)nn3C)cc1I (stereo not drawn) [Compound 9b, 6-Amino-4-(3-iodo-4-methoxyphenyl)-1-methyl-3-(thiophen-2-yl)-1,4-dihydropyrano[2,3-c]pyrazole-5-carbonitrile]

Same assay, conditions: 11 compound concentrations, two-fold serial dilutions; 1 nM USP7, 200 nM Ub-Rho 110

Structure (SMILES)	IC50 [nM]
COc1ccc(C2C(C#N)=C(N)Oc3nn(C(C)=O)c(-c4cccs4)c32)cc1Br (stereo not drawn) [Compound 14, 2-Acetyl-6-amino-4-(3-bromo-4-methoxyphenyl)-3-(thiophen-2-yl)-2,4-dihydropyrano[2,3-c]pyrazole-5-carbonitrile]	530 ± 50
